Source: ChEMBL document CHEMBL4715869, “N-(Pyrimidin-2-yl)-1,2,3,4-tetrahydroisoquinolin-6-amine Derivatives as Selective Janus Kinase 2 Inhibitors for the Treatment of Myeloproliferative Neoplasms” (J Med Chem, 2020)

What was measured:
BaF3 = test: Antitumor activity against mouse BAF3 cells harboring JAK2 V617F mutant implanted in Balb/c mouse assessed as decrease in liver weight at 60 mg/kg, po qd administered starting from day 4 to 20 and measured on day 25 relative to control; type: functional; design: scale not given: the % may be the effect or the level left; conditions: time 21 day
SET-2 = test: Antitumor activity against human SET2 cells xenografted in NOD/SCID mouse assessed as tumor growth inhibition at 60 mg/kg, po qd administered for 16 days and measured every 2 days relative to control; type: functional; conditions: SET-2, po, 384 h, time 16 day, read-out: TGI
[1] = Inhibition of JAK2 V617F mutant in mouse BaF3 cells assessed as reduction in cell viability incubated for 72 hrs by MTT assay
[2] = test system: Receptor-type tyrosine-protein kinase FLT3 (Homo sapiens), P36888 [UNDEFINED MUTATION]; test: Inhibition of FLT3 ITD mutant in human MOLM13 cells assessed as residual activity at 100 nM relative to control; type: cell-based; conditions: MOLM-13
Sequence of Receptor-type tyrosine-protein kinase FLT3 (Homo sapiens), P36888 [UNDEFINED MUTATION] (P36888 whole entry, looked up, change not shown): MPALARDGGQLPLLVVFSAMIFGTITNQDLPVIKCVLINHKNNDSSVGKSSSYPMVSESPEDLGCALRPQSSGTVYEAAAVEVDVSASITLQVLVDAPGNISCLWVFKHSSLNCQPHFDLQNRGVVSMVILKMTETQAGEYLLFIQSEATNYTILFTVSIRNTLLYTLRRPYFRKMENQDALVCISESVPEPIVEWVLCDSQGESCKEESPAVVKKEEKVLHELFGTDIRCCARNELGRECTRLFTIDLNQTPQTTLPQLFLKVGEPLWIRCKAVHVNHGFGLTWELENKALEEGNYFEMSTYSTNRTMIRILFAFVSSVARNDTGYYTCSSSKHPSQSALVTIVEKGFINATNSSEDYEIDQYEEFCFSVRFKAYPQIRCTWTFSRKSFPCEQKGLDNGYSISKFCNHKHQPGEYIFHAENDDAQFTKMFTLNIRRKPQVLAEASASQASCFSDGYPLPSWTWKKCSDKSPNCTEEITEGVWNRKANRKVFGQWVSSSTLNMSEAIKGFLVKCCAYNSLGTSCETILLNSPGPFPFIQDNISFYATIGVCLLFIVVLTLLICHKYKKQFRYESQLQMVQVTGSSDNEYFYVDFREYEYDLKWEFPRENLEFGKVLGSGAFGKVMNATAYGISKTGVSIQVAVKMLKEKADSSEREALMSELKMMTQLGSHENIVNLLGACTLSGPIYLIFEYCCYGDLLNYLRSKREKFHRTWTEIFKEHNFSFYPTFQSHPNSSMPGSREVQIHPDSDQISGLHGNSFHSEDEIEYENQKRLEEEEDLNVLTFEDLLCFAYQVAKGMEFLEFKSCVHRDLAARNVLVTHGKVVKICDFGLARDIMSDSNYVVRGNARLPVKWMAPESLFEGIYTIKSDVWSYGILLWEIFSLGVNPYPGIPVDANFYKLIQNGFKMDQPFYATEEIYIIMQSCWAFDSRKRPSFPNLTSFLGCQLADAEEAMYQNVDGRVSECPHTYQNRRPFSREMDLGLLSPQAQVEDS

SMILES	Activity (BaF3) [%]	inhibition in vivo at 60 mg/kg (SET-2) [%]	IC50 [1] [nM]	Activity [2] [%]
N#CC[C@H](C1CCCC1)n1cc(-c2ncnc3[nH]ccc23)cn1 [RUXOLITINIB]	80.4	52.8	–	–
Cc1cnc(Nc2ccc(N3CCC(N(C)CCO)CC3)c(F)c2)nc1-c1cnn(C(C)C)c1	–	–	145	5
